Measured values taken from patent publication US9226929B2, “Pharmaceutically active disubstituted triazine derivatives” (Bayer Intellectual Property GMBH, priority 2011, dated 2016).

Columns and labels:
[1] = system: LPS-induced TNF alpha release in PBMCs; experiment: TNF alpha Release Assay; type: cell-based; settings: Homo sapiens, PBMC, 1 μg/mL LPS, 6 h, read-out: TNF alpha release (activity range), IC50
Description: 3.3 TNF alpha Release Assay
Freshly isolated peripheral blood mononuclear cells (PBMCs) were seeded in 96-well cell culture plates with 200,000 cells in 100 μl cell culture medium (DMEM cell culture medium+glutamine from PAN Biotech GmbH, Aidenbach, Germany) supplemented with 10% fetal calf serum (PAA Laboratories GmbH, Pasching, Austria) per well and incubated overnight at 37° C., 5% CO2. To each well, 100 μL cell culture medium with 2× concentrated test compounds diluted from 10 mM DMSO stocks, or 100 μL DMEM with 0.4% DMSO for control wells, was added. The compounds of general formula (I) summarized in Table 6 were used in this assay. After incubation for 1 h at 37° C., 5% CO2, cells were stimulated with 1 μg/mL LPS (Lipopolysaccharides, Sigma, catalog #L4391-1 MG; 1 mg/ml stock solution), or left untreated for negative controls, and plates were incubated for 6 h at 37° C./5% CO2. The cell culture plates were centrifuged at 2000 rpm for 5 minutes, and supernatants were transferred to fresh 96-well polypropylene plates. 25 μL of supernatants were transferred into 96-well-plates of the human TNF alpha-tissue culture kit (Meso Scale Discovery, Gaithersburg, Md., USA), and manufacturer's instructions were followed for analysis of TNF alpha levels. […]

[2] = system: cellular CDK9 activity (RNA Polymerase II Ser2 phosphorylation); experiment: RNA-Polymerase II Ser2 Cellular Phosphorylation Assay; type: cell-based; settings: Homo sapiens; HCT-116 cells, normalized with tubulin; read-out: RNA Polymerase II Ser2 Phosphorylation (activity range), IC50
Description: 3.1 RNA-Polymerase II Ser2 Cellular Phosphorylation Assay:
HCT-116 cells (DSMZ, Braunschweig, Germany) were maintained in Mc Coy's cell culture medium+glutamine (PAN Biotech GmbH, Aidenbach, Germany) supplemented with 10% fetal calf serum (PAA Laboratories GmbH, Pasching, Austria) and grown at 37° C., 5% CO2. For the cellular phosphorylation assay, cells were seeded with 2×10^5 cells/well/1 ml in 24-well plates (Greiner Bio One, Frickenhausen, Germany; catalog #662160). The compounds of general formula (I) summarized in Table 6 were diluted from a 10 mM DMSO stock solution 1:10 in a total volume of 15 μL DMSO. After overnight incubation at 37° C./5% CO2, 1.5 μL of a compound diluted in DMSO was added to each sample well. Wells with cells and 0.15% DMSO in culture medium were used as positive controls, wells without cells and 0.15% DMSO in culture medium were used as negative controls. […] Phosphorylation of RNA Polymerase II Ser2 and tubulin levels for normalization were analyzed afterwards with the Multi-Array technology (Meso Scale Discovery, Gaithersburg, Md., USA), a combination of antibody coupled electrochemiluminescence detection and patterned arrays. […] Finally, plates were washed three times with Tris Wash Buffer, 150 μl 2× Read Buffer (Meso Scale Discovery) were added per well and plates were analyzed immediately in a Sector Imager from Meso Scale Discovery. […]

Structure (SMILES)	IC50 [1] [µM]	IC50 [2] [µM]
NS(=O)(=O)Cc1cccc(Nc2ncnc(N3CCCCC3)n2)c1 [Compound B1, 3-[(4-(Piperidin-1-yl)-1,3,5-triazin-2-yl)amino]benzenemethane sulfonamide]	> 10	
NS(=O)(=O)Cc1cccc(Nc2ncnc(N3CCc4ncccc4C3)n2)c1 [Compound B38, 3-[(4-(7,8-Dihydro-1,6-naphthyridin-6(5H)-yl)-1,3,5-triazin-2-yl)amino]-benzenemethanesulfonamide]		> 10
COC[C@H]1CCCN1c1ncnc(Nc2cccc(CS(N)(=O)=O)c2)n1 [Compound B17, (R)-3-[(4-(2-(Methoxymethyl)pyrrolidin-1-yl)-1,3,5-triazin-2-yl)amino]benzenemethanesulfonamide]	1 to 10	
